Molecules are shown by their SMILES.

Chain of GluA1o-γ8 (GRIA1o-CACNG8 fusion construct; TARP γ8 dependent AMPA receptor) (P42261 other isoform, or with tags, fused parts or gaps): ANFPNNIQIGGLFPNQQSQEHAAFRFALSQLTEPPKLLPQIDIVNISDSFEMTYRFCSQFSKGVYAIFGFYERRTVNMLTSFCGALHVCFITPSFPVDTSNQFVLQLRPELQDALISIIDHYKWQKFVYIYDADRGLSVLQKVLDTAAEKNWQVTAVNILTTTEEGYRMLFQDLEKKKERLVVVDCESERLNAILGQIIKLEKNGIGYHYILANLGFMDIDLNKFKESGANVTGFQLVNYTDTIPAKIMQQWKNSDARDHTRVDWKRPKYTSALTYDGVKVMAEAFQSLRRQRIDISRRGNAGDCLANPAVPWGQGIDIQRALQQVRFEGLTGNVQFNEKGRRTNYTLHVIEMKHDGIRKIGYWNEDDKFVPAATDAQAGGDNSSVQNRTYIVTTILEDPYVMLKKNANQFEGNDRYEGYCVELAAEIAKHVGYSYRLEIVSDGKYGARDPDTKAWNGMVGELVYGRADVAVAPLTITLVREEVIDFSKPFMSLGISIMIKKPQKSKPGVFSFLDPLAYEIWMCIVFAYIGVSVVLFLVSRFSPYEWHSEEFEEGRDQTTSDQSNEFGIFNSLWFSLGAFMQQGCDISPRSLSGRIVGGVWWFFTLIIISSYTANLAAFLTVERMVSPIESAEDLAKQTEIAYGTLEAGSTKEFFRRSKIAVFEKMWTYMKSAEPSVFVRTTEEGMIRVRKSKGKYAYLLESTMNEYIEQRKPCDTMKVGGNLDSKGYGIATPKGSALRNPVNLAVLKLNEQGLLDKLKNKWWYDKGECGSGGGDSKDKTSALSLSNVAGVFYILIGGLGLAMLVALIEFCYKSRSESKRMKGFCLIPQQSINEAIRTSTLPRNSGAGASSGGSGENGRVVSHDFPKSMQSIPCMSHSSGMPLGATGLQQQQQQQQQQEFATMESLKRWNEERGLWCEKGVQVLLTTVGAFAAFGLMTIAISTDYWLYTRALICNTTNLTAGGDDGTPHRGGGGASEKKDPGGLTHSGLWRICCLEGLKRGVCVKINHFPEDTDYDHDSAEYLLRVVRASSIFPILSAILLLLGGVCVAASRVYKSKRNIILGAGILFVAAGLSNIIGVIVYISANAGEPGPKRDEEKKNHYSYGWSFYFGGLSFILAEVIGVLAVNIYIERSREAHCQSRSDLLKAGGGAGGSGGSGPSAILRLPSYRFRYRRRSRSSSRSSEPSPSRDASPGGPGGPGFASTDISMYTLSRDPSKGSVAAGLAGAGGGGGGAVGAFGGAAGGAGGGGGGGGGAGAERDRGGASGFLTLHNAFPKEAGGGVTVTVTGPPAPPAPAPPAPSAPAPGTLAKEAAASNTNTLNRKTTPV

The experiment concerns the target GluA1o-γ8 (GRIA1o-CACNG8 fusion construct; TARP γ8 dependent AMPA receptor) (Homo sapiens (Human), UniProt P42261+Q8WXS5). The experiment can be described thus: Calcium flux assay (FLIPR), inhibition of glutamate response of GluA1o-γ8 channel. Type of experiment: cell-based. The note with it: HEK293 cells stably expressing GRIA1o-CACNG8 fusion; 15 μM glutamate; pIC50 = negative log of IC50 in molar; read-out: GluR1-γ8 (pIC50) (converted). From the text:
This assay was used to test compounds for their ability to inhibit TARP γ8 dependent AMPA receptor activity. The AMPA receptor is a non-selective cation channel activated by glutamate. Ionotropic glutamate receptors normally desensitize too rapidly to allow detectable calcium influx in a FLIPR assay (Strange et al. (2006). “Functional characterisation of homomeric ionotropic glutamate receptors GluR1-GluR6 in a fluorescence-based high throughput screening assay.” Comb Chem High Throughput Screen 9(2): 147-158). But, this desensitization is incomplete, and a substantial steady-state current remains in the sustained presence of glutamate (Cho et al. (2007). “Two families of TARP isoforms that have distinct effects on the kinetic properties of AMPA receptors and synaptic currents.” Neuron 55(6): 890-904).
An in vitro assay was used to determine the potency of test compounds as inhibitors of the glutamate response of the channel formed by GluA1o-γ8. To ensure a 1:1 stoichiometry of GluA10 and γ8 subunits in the expressed channel, a fusion of the cDNAs for GRIA1o and CACNG8 was used. Following Shi et al (2009) “The stoichiometry of AMPA receptors and TARPs varies by neuronal cell type.” Neuron 62(5): […]), the C-terminus of the cDNA for GRI1o was fused to the N-terminus of the cDNA for γ8. The linker sequence was […]. […] A clonal cell line in HEK293 cells stably expressing this construct, with a geneticin selection marker, was generated for use in this assay. Cell expressing the GRIA1o-CACNG8 fusion construct were grown in a monolayer in 96- or 384-well microtiter plates. They were washed with assay buffer (135 mM NaCl, 4 mM KCl, 3 mM CaCl2, 1 mM MgCl2, 5 mM glucose, 10 mM HEPES, pH 7.4, 300 mOs) using a Biotek EL405 plate washer. The cells were then loaded with a calcium-sensitive dye (Calcium-5 or Calcium-6, Molecular Devices) and the test compounds at a range of concentrations. Calcium flux following the addition of 15 μM glutamate was monitored using a Molecular Devices FLIPR Tetra.
The fluorescence in each well was normalized to the fluorescence of negative and positive control wells. […] The responses to glutamate as functions of the test compound concentrations were fitted to a four-parameter logistic function. The fitted parameter corresponding to the midpoint was taken to be the potency of inhibition of the compound.
On the technique in general: A change in cytosolic calcium serves as a functional read-out for many receptors and channels.
Regarding `O=C1CN(c2nccn3c(-c4ccc(O)cc4)c(-c4ccc(F)cc4)nc23)CCN1` [Example 27, 4-[2-(4-Fluorophenyl)-3-(4-hydroxyphenyl)imidazo[1,2-a]pyrazin-8-yl]piperazin-2-one], the IC50 is 3.16 nM.

For `Oc1ccc(-c2c(-c3ccc(F)cc3)nc3c(N4CCC(F)(F)CC4)nccn23)cc1` [Example 28, 4-[8-(4,4-Difluoro-1-piperidyl)-2-(4-fluorophenyl)imidazo[1,2-a]pyrazin-3-yl]phenol], the IC50 was 158 nM.

Consider `Oc1ccc(-c2c(-c3ccc(F)cc3)nc3c(N4CCCC(F)(F)C4)nccn23)cc1` [Example 29, 4-[8-(3,3-Difluoro-1-piperidyl)-2-(4-fluorophenyl)imidazo[1,2-a]pyrazin-3-yl]phenol], for which the IC50 is 31.6 nM.

`Fc1ccc(-c2nc3c(N4CCOCC4)nccn3c2-c2ccc3[nH]nnc3c2)cc1` [Example 30, 4-[3-(1H-Benzotriazol-5-yl)-2-(4-fluorophenyl)imidazo[1,2-a]pyrazin-8-yl]morpholine]: the IC50 was 79.4 nM.

Turning to `Fc1ccc(-c2nc3c(N4CCOCC4)nccn3c2-c2ccc3[nH]cnc3c2)cc1` [Example 31, 4-[3-(1H-Benzimidazol-5-yl)-2-(4-fluorophenyl)imidazo[1,2-a]pyrazin-8-yl]morpholine], the IC50 was 631 nM.

For the molecule `O=C1CN(c2nccn3c(-c4ccc5c(c4)CC(=O)N5)c(-c4ccc(F)cc4)nc23)CCN1` [Example 32, 5-[2-(4-Fluorophenyl)-8-(3-oxopiperazin-1-yl)imidazo[1,2-a]pyrazin-3-yl]indolin-2-one], the IC50 was 0.501 nM.

`O=C1CN(c2nccn3c(-c4ccc5[nH]ncc5c4)c(-c4ccc(F)cc4)nc23)CCN1` [Example 33, 4-[2-(4-Fluorophenyl)-3-(1H-indazol-5-yl)imidazo[1,2-a]pyrazin-8-yl]piperazin-2-one]: the IC50 is 0.2 nM.

In the case of `O=C1CN(c2nccn3c(-c4ccc5[nH]c(=O)[nH]c5c4)c(-c4ccc(F)cc4)nc23)CCN1` [Example 34, 5-[2-(4-Fluorophenyl)-8-(3-oxopiperazin-1-yl)imidazo[1,2-a]pyrazin-3-yl]-1,3-dihydrobenzimidazol-2-one], the IC50 was 1.26 nM.

`O=C1Cc2cc(-c3c(-c4ccc(F)c(F)c4)nc4c(N5CCOCC5)nccn34)ccc2N1` [Example 35, 5-[2-(3,4-Difluorophenyl)-8-morpholino-imidazo[1,2-a]pyrazin-3-yl]indolin-2-one]: the IC50 is 0.501 nM.

In the case of `CC(C)(C)OC(=O)N1CCN(c2nccn3c(-c4ccc5c(c4)CC(=O)N5)c(Cc4ccccc4)nc23)CC1` [Example 36, tert-Butyl 4-[2-benzyl-3-(2-oxoindolin-5-yl)imidazo[1,2-a]pyrazin-8-yl]piperazine-1-carboxylate], the IC50 was 0.316 nM.

As to `O=C1CN(c2nccn3c(-c4ccc5c(c4)CC(=O)N5)c(Cc4ccccc4)nc23)CCN1` [Example 38, 5-[2-Benzyl-8-(3-oxopiperazin-1-yl)imidazo[1,2-a]pyrazin-3-yl]indolin-2-one], the IC50 was 1 nM.

As for `CC1COCCN1c1nccn2c(-c3ccc4c(c3)CC(=O)N4)c(-c3ccc(F)cc3)nc12` (centres unmarked) [Example 39, 5-[2-(4-Fluorophenyl)-8-(3-methylmorpholin-4-yl)imidazo[1,2-a]pyrazin-3-yl]indolin-2-one], the IC50 is 0.794 nM.

For `O=C1Cc2cc(-c3c(-c4ccc(F)cc4)nc4c(NC5CCNC5=O)nccn34)ccc2N1` (centres unmarked) [Example 40, 5-[2-(4-Fluorophenyl)-8-[(2-oxopyrrolidin-3-yl)amino]imidazo[1,2-a]pyrazin-3-yl]indolin-2-one], the IC50 was 251 nM.

Consider `O=C1Cc2cc(-c3c(-c4ccc(F)cc4)nc4c(N5CCC(O)C5)nccn34)ccc2N1` (centres unmarked) [Example 41, 5-[2-(4-Fluorophenyl)-8-(3-hydroxypyrrolidin-1-yl)imidazo[1,2-a]pyrazin-3-yl]indolin-2-one], for which the IC50 was 0.631 nM.

As to `O=C1Cc2cc(-c3c(-c4ccc(F)cc4)nc4c(N5CCOC(C(F)(F)F)C5)nccn34)ccc2N1` (centres unmarked) [Example 42, 5-[2-(4-Fluorophenyl)-8-[2-(trifluoromethyl)morpholin-4-yl]imidazo[1,2-a]pyrazin-3-yl]indolin-2-one], the IC50 is 7.94 nM.

For the molecule `C[C@H]1COCCN1c1nccn2c(-c3ccc4c(c3)CC(=O)N4)c(-c3ccc(F)cc3)nc12` [Example 43, 5-[2-(4-Fluorophenyl)-8-[(3S)-3-methylmorpholin-4-yl]imidazo[1,2-a]pyrazin-3-yl]indolin-2-one], the IC50 was 0.631 nM.

Turning to `C[C@@H]1COCCN1c1nccn2c(-c3ccc4c(c3)CC(=O)N4)c(-c3ccc(F)cc3)nc12` [Example 44, 5-[2-(4-Fluorophenyl)-8-[(3R)-3-methylmorpholin-4-yl]imidazo[1,2-a]pyrazin-3-yl]indolin-2-one], the IC50 was 7.94 nM.

Take `O=C1Cc2cc(-c3c(-c4ccc(F)cc4)nc4c(N5CCCC5)nccn34)ccc2N1` [Example 45, 5-[2-(4-Fluorophenyl)-8-pyrrolidin-1-yl-imidazo[1,2-a]pyrazin-3-yl]indolin-2-one]: the IC50 is 1 nM.

`CN(c1nccn2c(-c3ccc4c(c3)CC(=O)N4)c(-c3ccc(F)cc3)nc12)C1CC1` [Example 46, 5-[8-[Cyclopropyl(methyl)amino]-2-(4-fluorophenyl)imidazo[1,2-a]pyrazin-3-yl]indolin-2-one]: the IC50 is 5.01 nM.

With `O=C1Cc2cc(-c3c(-c4ccc(F)cc4)nc4c(N5CCS(=O)(=O)CC5)nccn34)ccc2N1` [Example 47, 5-[8-(1,1-Dioxo-1,4-thiazinan-4-yl)-2-(4-fluorophenyl)imidazo[1,2-a]pyrazin-3-yl]indolin-2-one], the IC50 was 0.398 nM.

With `CC1(C)COCCN1c1nccn2c(-c3ccc4c(c3)CC(=O)N4)c(-c3ccc(F)cc3)nc12` [Example 50, 5-[8-(3,3-Dimethylmorpholin-4-yl)-2-(4-fluorophenyl)imidazo[1,2-a]pyrazin-3-yl]indolin-2-one], the IC50 is 31.6 nM.

On to `CCN(CC)c1nccn2c(-c3ccc4c(c3)CC(=O)N4)c(-c3ccc(F)cc3)nc12` [Example 51, 5-[8-(Diethylamino)-2-(4-fluorophenyl)imidazo[1,2-a]pyrazin-3-yl]indolin-2-one], for which the IC50 is 3.98 nM.

In the case of `O=C1Cc2cc(-c3c(-c4ccc(F)cc4)nc4c(N5CCCC(O)C5)nccn34)ccc2N1` (centres unmarked) [Example 54, 5-[2-(4-Fluorophenyl)-8-(3-hydroxy-1-piperidyl)imidazo[1,2-a]pyrazin-3-yl]indolin-2-one], the IC50 was 0.316 nM.

On to `O=C1Cc2cc(-c3c(-c4ccc(F)cc4)nc4c(N5CCC6(CC5)OCCO6)nccn34)ccc2N1` [Example 55, 5-[8-(1,4-Dioxa-8-azaspiro[4.5]decan-8-yl)-2-(4-fluorophenyl)imidazo[1,2-a]pyrazin-3-yl]indolin-2-one], for which the IC50 is 0.2 nM.

`O=C1Cc2cc(-c3c(C4CCCCC4)nc4c(N5CCOCC5)nccn34)ccc2N1` [Example 56, 5-(2-Cyclohexyl-8-morpholino-imidazo[1,2-a]pyrazin-3-yl)indolin-2-one]: the IC50 is 7.94 nM.

Regarding `O=C1Cc2cc(-c3c(C4CCCC4)nc4c(N5CCOCC5)nccn34)ccc2N1` [Example 57, 5-(2-Cyclopentyl-8-morpholino-imidazo[1,2-a]pyrazin-3-yl)indolin-2-one], the IC50 is 15.8 nM.

The record behind these values is patent US10513523B2, “Imidazopyrazines and pyrazolopyrimidines and their use as AMPA receptor modulators” (Janssen Pharmaceutica NV, priority 2015, dated 2019).
